# Laboratory results from article PMC7324608 (Scientific Reports, 2020).
# Where a chain is given by its changes, count along the chain named.
# Columns and labels:
# HpHtrA S164A [1] = target: T1, HpHtrA S164A (Helicobacter pylori, UniProt G2J5T2, S164A); assay: thermal shift assay; assay type: binding; parameters: (HpHtrA, G18-K475, UniProt G2J5T2); GST (N, cleaved yes); made in house; host or cells: E. coli BL21
# T1 sequence (G2J5T2 18-475 S164A): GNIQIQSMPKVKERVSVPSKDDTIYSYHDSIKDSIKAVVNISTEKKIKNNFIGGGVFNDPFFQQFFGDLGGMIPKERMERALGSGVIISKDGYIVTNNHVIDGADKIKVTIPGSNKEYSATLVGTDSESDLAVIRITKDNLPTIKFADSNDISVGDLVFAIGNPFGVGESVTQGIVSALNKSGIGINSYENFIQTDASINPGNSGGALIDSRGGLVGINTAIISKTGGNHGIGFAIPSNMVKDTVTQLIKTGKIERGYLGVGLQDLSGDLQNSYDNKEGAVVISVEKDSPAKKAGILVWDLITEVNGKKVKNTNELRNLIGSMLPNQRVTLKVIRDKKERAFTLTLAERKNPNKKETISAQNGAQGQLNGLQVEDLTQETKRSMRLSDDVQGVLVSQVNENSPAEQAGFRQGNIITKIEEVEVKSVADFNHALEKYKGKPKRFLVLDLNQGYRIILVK
# Experimental: Recombinant HpHtrA proteins (wt, S164A, D165A, S166A, D168A) in 50 mM HEPES buffer (pH 7.4) were mixed with SYPRO Orange (Sigma-Aldrich, Vienna, Austria) to final concentrations of 4 µM HpHtrA and 7 × SYPRO Orange in a 96-well PCR plate. […] Fluorescence data was collected using an Applied Bioscience StepOne Plus PCR cycler (Thermo Fisher Scientific, Schwerte, Germany) during a temperature ramp from 25–95 °C (0.5 °C per min) with a 4 min hold at 25 °C and 95 °C. SYPRO Orange binds to exposed hydrophobic regions within the denatured HpHtrA proteins, which increases the fluorescence of the dye[57],[58]. The fluorescence emission signal can then be used to determine the melting temperature of the protein, which is located at the infliction point of the fluorescence signal curve. The experiment was performed in triplicates.
# HpHtrA S164A [2] = target: T1, HpHtrA S164A; assay: biochemical
# Experimental: (§1) Synthesis of 2-Abz-AQRVAFY(3-NO2)-NH2. The peptide was assembled manually on a 20 µmol scale.
# (§2) The side-chain protecting groups were Pbf for Arg, and Trt for Gln. Fmoc deprotection was carried out with 25% piperidine in DMF/NMP (80:20, v/v) for 3 min, and 12.5% piperidine in DMF/NMP (80:20, v/v) for 12 min. The double couplings (2x45 min) were accomplished with the mixture Fmoc-AA-OH/HOBt/HBTU/DIPEA (5:5:4.8:10 equiv.). 2 -Boc-Abz-OH was coupled with the same protocol.
# (§3) Afterwards, the peptidyl-resin was treated with 25% piperidine in DMF/NMP (80:20, v/v) (2x12 min) to deacylate the 3-nitro-tyrosine side chain. The peptide was simultaneously cleaved from the resin and deprotected by using the mixture TFA/H2O/TIA/EDT/TIS (90:3:1:3:3; Vtot = 1 ml) for about 3 h, precipitated from ice-cold diethyl ether, recovered by centrifugation at 4 °C for 6 min, washed four times with ice-cold diethyl ether, and dried in vacuo. The solid was dissolved in water and lyophilized.
# (§4) Microscale thermophoresis .
# (§5) D168A, MicroScale Thermophoresis (MST) analysis was performed using the Monolith NT.115 (NanoTemper Technologies). HpHtrA proteases were labeled with red fluorescent dye NT -650-NHS (amine reactive) according to the manufacturer’s protocol. Remaining free dye was removed by buffer exchange column chromatography and proteins were eluted in 50 mM Tris pH 7.4, 150 mM NaCl, 0.04% Tween. 5 nM of labelled HpHtrA was incubated for 15 minutes at RT with decreasing […]
# (§6) Measurement was performed with premium treated capillaries (NanoTemper Technologies) and the Monolith NT.115 Microscale Thermophoresis device. Data analysis was performed with MO.Affinity Analysis v2.3 (NanoTemper Technologies) and GraphPad Prism Software (Version 8.0.2). Three independent experiments were […]
# HpHtrA wt = target: T2, HpHtrA wt (Helicobacter pylori, UniProt G2J5T2); assay: biochemical
# T2 sequence (G2J5T2 18-475): T1 sequence (G2J5T2 18-475 S164A) with A147S
# Experimental: as §1, §2, §3, §4, §5, §6
# HpHtrA S166A = target: T3, HpHtrA S166A (Helicobacter pylori, UniProt G2J5T2, S166A); conditions: MST
# T3 sequence (G2J5T2 18-475 S166A): T1 sequence (G2J5T2 18-475 S164A) with A147S, S149A
# Experimental: as §1, §2, §3, §4, §5, §6
Compound,thermal destabilization (ΔTm) (HpHtrA S164A [1]; higher concentrations of ion),thermal stabilization (ΔTm) (HpHtrA S164A [1]; low/increasing concentrations of ion),Kd (HpHtrA S164A [2]),"Response amplitude (HpHtrA S164A [2]; MST, 5 nM labelled HpHtrA S164A)","S/N (signal to noise ratio) (HpHtrA S164A [2]; MST, HpHtrA S164A)",Kd (HpHtrA wt),"Response amplitude (HpHtrA wt; MST, 5 nM labelled HpHtrA wt, ZnCl2 1 mM - 30.5 nM)","S/N (signal to noise ratio) (HpHtrA wt; MST, HpHtrA wt)",Response amplitude (HpHtrA S166A)
"[Cu+2] [Cu^++, CuCl2]",destabilized,stabilized,,,,,,,
"[Zn+2] [Zn^++, ZnCl2]",,,55 ± 34 µM,3.6,6.0,23 ± 12 µM,4.3,6.3,3.9
